This is an account of results in patent US20230270112A1, “A METHOD OF DI[…] GASEOUS ENVIRONMENT, A LIQUID, OR A SOLID SURFACE” (priority 2020, published 2023).

Like-named read-outs stand apart in the source and are kept apart here.

The conditions of assay [1]: with cucurbit[7]uril; cited from earlier work.
The subject of assay [2] is herpes simplex virus serotype two (HSV-2). In words: Titration by TCID50 assay (incl. guest-host chemistry assay). It counts as cell-based. The following applies: mixed with the virus for 5 minutes, FIG. 3a.
The test system of assay [3] is respiratory syncytial virus (RSV). In words: Titration by TCID50 assay. It counts as cell-based. The following applies: FIG. 3b.
For assay [4], the system named is herpes simplex virus serotype two (HSV-2). In words: DNA exposure assay. The following applies: FIG. 6.
A further assay concerns SARS-CoV-2. It is filed as cell-based.
Assay [5] concerns herpes simplex virus serotype two (HSV-2). In words: Time of addition study. It counts as cell-based. The settings on record: FIG. 7.
The test system is the same in assay [6]. In words: Dose-response (plaque) assay. The following applies: FIG. 4a. It is filed as cell-based.
Assay [7] has as its system respiratory syncytial virus (RSV). In words: Dose-response (plaque) assay. It is filed as cell-based. The settings on record: FIG. 4b.
Assay [8] concerns herpes simplex virus serotype two (HSV-2). In words: Virucidal assay. It counts as cell-based. The settings on record: FIG. 5.

As for `NC12CC3CC(CC(C3)C1)C2` [ADA, 1-Adamantylamine], the binding affinity in assay [1] is on record as 1.7+/−0.8×10^14 M^−1.

With `O=C1N2CN3C(=O)N4CN5C(=O)N6CN7C(=O)N8CN9C(=O)N%10CN%11C(=O)N%12CN1C1C2N2CN%13C(=O)N(CN%14C(=O)N(CN%15C(=O)N(CN%16C(=O)N(CN%17C(=O)N(CN1C2=O)C%12C%11%17)C%10C9%16)C8C7%15)C6C5%14)C4C3%13` (stereo not shown) [cucurbit[6]uril], in assay [2], the viral titre reduction result is “lack of viral titre reduction”. For the same compound, in assay [3], the antiviral effect result was “ineffective”. For the same compound, the “DNA detected following viral exposure, DNAse and PCR amplification” value in assay [4] is “DNA was detected”.

For `O=C1N2CN3C(=O)N4CN5C(=O)N6CN7C(=O)N8CN9C(=O)N%10CN%11C(=O)N%12CN%13C(=O)N%14CN%15C(=O)N%16CN1C1C2N2CN%17C(=O)N(CN%18C(=O)N(CN%19C(=O)N(CN%20C(=O)N(CN%21C(=O)N(CN%22C(=O)N(CN%23C(=O)N(CN1C2=O)C%16C%15%23)C%14C%13%22)C%12C%11%21)C%10C9%20)C8C7%19)C6C5%18)C4C3%17` (stereo not shown) [cucurbit[8]uril, Cucurbit[8]uril], the viral titre reduction result in assay [2] is reported as “lack of viral titre reduction”. The antiviral effect entry in [3] is recorded as “ineffective”. For the same compound, the “DNA detected following viral exposure, DNAse and PCR amplification” value in assay [4] is given as “No DNA was detected”.

The EC50 is the concentration at which the effect is half-maximal. A low value points to an effect from little substance. On to cucurbit[7]uril, for which, in assay [2] (20-50 mg/mL), the “reduction in viral titre” value was “approximately 5 log”. The antiviral efficacy result in the assay with SARS-CoV-2 was “largely ineffective”; in the assay on SARS-CoV-2 (50 mg/mL) it was “highly effective”. Moreover, the viral inhibition result in assay [5] (added after the virus has been exposed to the cells (post-infection)) and in assay [5] (removed prior to viral introduction (pre-treatment)) was “no viral inhibition” each time. In addition, the antiviral effect result in assay [5] (added directly to the virus before infection ('during infection')) was “an antiviral effect was observed”. Also, the EC50 was determined as 1270 µg/mL in assay [6] and 1070 µg/mL in assay [7]. In assay [8], the “mode of action (virucidal or virustatic)” value was “virucidal”.
